Holding throughout (assay type): protein assay
Experiment [1] addresses T1, Phosphodiesterase 3 (Homo sapiens, UniProt Q14432+Q13370). Briefly: Inhibition of PDE3 at 500 uM by Biomol Green quantizyme assay system.
In experiment [2] the target is T1, Phosphodiesterase 3. The experiment is described as follows: Inhibition of PDE3 at 1 nM by Biomol Green quantizyme assay system.
The target in experiment [3] is T1, Phosphodiesterase 3. The experiment is described as follows: Inhibition of PDE3 at 100 nmol by Biomol Green quantizyme assay system.
Experiment [4] has as its target T1, Phosphodiesterase 3. Briefly: Inhibition of PDE3 by Biomol Green quantizyme assay system.
Experiment [5] concerns the target T1, Phosphodiesterase 3. The experiment is described as follows: Inhibition of PDE3 at 10 uM by Biomol Green quantizyme assay system.

For orientation: inhibition means the relative decrease from the control value, in per cent. Low readings indicate a weak effect, high ones a strong effect. As for `N#Cc1cc(Cc2ccc(Br)cc2)c(=O)[nH]c1-c1ccccc1`, the inhibition against Phosphodiesterase 3 [1] was found to be 4.3%.

At Phosphodiesterase 3 [1], `CCOC(=O)c1cc(Cc2ccc(Cl)cc2)c(=O)[nH]c1C` gave an inhibition of 43%.

Take `CCOC(=O)c1cc(Cc2ccc(Cl)cc2)c(=O)[nH]c1-c1ccccc1`: the inhibition on Phosphodiesterase 3 [1] was determined as 1.1%.

Usually IC50 stands for the midpoint of a concentration-inhibition curve. With `COC(=O)c1cc(Cc2ccccc2)c(=O)[nH]c1C`, the inhibition against Phosphodiesterase 3 [2] was 21.5%; at Phosphodiesterase 3 [3], 36.9%; on Phosphodiesterase 3 [1] it was 76.7%. Besides, the 50% inhibitory concentration (IC50) on Phosphodiesterase 3 [4] is 163.5 µM.

At Phosphodiesterase 3 [1], `CCOC(=O)c1cc(Cc2ccccc2)c(=O)[nH]c1C` returned an inhibition of 42.9%.

For `CCOC(=O)c1cc(Cc2cccc(Cl)c2)c(=O)[nH]c1-c1ccccc1`, the inhibition on Phosphodiesterase 3 [2] turned out to be 0%; against Phosphodiesterase 3 [1], 80.9%; at Phosphodiesterase 3 [5], 20%. At Phosphodiesterase 3 [4], the IC50 is 312.4 µM.

In the case of `Cc1[nH]c(=O)c(Cc2ccccc2Cl)cc1C#N`, the inhibition against Phosphodiesterase 3 [2] was determined as 0%; against Phosphodiesterase 3 [3], 7.69%; at Phosphodiesterase 3 [1] it was 80.4%. This compound also yielded an IC50 against Phosphodiesterase 3 [4] of 423.2 µM.

Take `CCOC(=O)c1cc(Cc2cccc(Cl)c2)c(=O)[nH]c1C`: the inhibition is 30.8% against Phosphodiesterase 3 [3], 83.2% against Phosphodiesterase 3 [1] and 56.9% against Phosphodiesterase 3 [5]. The concentration for half-maximal inhibition (IC50) on Phosphodiesterase 3 [4] turned out to be 7.49 µM.

Consider `Cc1[nH]c(=O)c(C#N)cc1-c1ccncc1`, for which the inhibition at Phosphodiesterase 3 [1] was 90.6%; against Phosphodiesterase 3 [5], 91.7%.

As for `CCOC(=O)c1cc(Cc2ccc(Br)cc2)c(=O)[nH]c1C`, the inhibition is 44.6% against Phosphodiesterase 3 [2], 47.7% against Phosphodiesterase 3 [3] and 79.1% against Phosphodiesterase 3 [1]. Moreover, the IC50 against Phosphodiesterase 3 [4] amounted to 38.5 µM.

`Cc1[nH]c(=O)c(Cc2ccc(Br)cc2)cc1C#N` registered an inhibition against Phosphodiesterase 3 [1] of 17.3%.

For `Cc1[nH]c(=O)c(Cc2ccccc2)cc1C#N`, the inhibition against Phosphodiesterase 3 [2] stood at 35.4%; at Phosphodiesterase 3 [3] it was 38.5%; on Phosphodiesterase 3 [1] it was 84.6%. This compound returned an IC50 on Phosphodiesterase 3 [4] of 128.3 µM.

On Phosphodiesterase 3 [1], `Cc1[nH]c(=O)c(Cc2ccc(Cl)cc2)cc1C#N` displayed an inhibition of 41.2%.

`CCOC(=O)c1cc(Cc2ccc(C)cc2)c(=O)[nH]c1-c1ccccc1` gave an inhibition against Phosphodiesterase 3 [1] of 42.2%.

At Phosphodiesterase 3 [1], `N#Cc1cc(Cc2ccccc2)c(=O)[nH]c1-c1ccccc1` had an inhibition of 22.5%.

With `CCCc1cc(C(=O)OCC)c(C)[nH]c1=O`, the inhibition at Phosphodiesterase 3 [2] worked out at 6.15%; against Phosphodiesterase 3 [3], 40%; on Phosphodiesterase 3 [1], 78.2%. The IC50 at Phosphodiesterase 3 [4] was determined as 125.1 µM.

Take `Cc1[nH]c(=O)c(Cc2ccc(Cl)cc2Cl)cc1C#N`: the inhibition on Phosphodiesterase 3 [2] was 0%; on Phosphodiesterase 3 [1], 79.5%; against Phosphodiesterase 3 [5], 23.1%. This compound also had an IC50 against Phosphodiesterase 3 [4] of 280.7 µM.

The compound `CCOC(=O)c1cc(Cc2ccccc2Cl)c(=O)[nH]c1C` had an inhibition at Phosphodiesterase 3 [1] of 53.9%.

For `COC(=O)c1cc(Cc2ccccc2Cl)c(=O)[nH]c1C`, the inhibition against Phosphodiesterase 3 [3] turned out to be 36.9%; on Phosphodiesterase 3 [1], 85.8%; at Phosphodiesterase 3 [5], 87.7%. The IC50 at Phosphodiesterase 3 [4] stood at 2.66 µM.

As to `CCOC(=O)c1cc(Cc2ccccc2)c(=O)[nH]c1-c1ccccc1`, the inhibition against Phosphodiesterase 3 [2] is 33.9%; against Phosphodiesterase 3 [1] it was 83%; against Phosphodiesterase 3 [5], 55.4%. Moreover, on Phosphodiesterase 3 [4], the IC50 worked out at 7.3 µM.

As for `CCOC(=O)c1cc(Cc2ccc(Br)cc2)c(=O)[nH]c1-c1ccccc1`, the inhibition was determined as 21.5% against Phosphodiesterase 3 [3], 74.1% against Phosphodiesterase 3 [1] and 55.4% against Phosphodiesterase 3 [5]. Moreover, the IC50 at Phosphodiesterase 3 [4] came out at 8.47 µM.

Regarding `CCOC(=O)c1cc(Cc2ccc(Cl)cc2Cl)c(=O)[nH]c1C`, the inhibition against Phosphodiesterase 3 [3] was 30.8%; against Phosphodiesterase 3 [1] it was 78.3%; at Phosphodiesterase 3 [5], 35.4%. The same compound came in with an IC50 at Phosphodiesterase 3 [4] of 172.13 µM.

Regarding `Cc1ccc(Cc2cc(C#N)c(C)[nH]c2=O)cc1`, the values for the inhibition against Phosphodiesterase 3 [2], against Phosphodiesterase 3 [1] and on Phosphodiesterase 3 [5] were 34%, 85.9% and 72.4%, respectively. Also, the IC50 against Phosphodiesterase 3 [4] stood at 1.68 µM.

Regarding `CCOC(=O)c1cc(Cc2ccc(C)cc2)c(=O)[nH]c1C`, the inhibition is 0% against Phosphodiesterase 3 [2], 80.1% against Phosphodiesterase 3 [1] and 35.4% against Phosphodiesterase 3 [5]. The compound also displayed an IC50 on Phosphodiesterase 3 [4] of 172.5 µM.

(Values after ChEMBL document CHEMBL2069260, “Synthesis and evaluation of novel 2-pyridone derivatives as inhibitors of phosphodiesterase3 (PDE3): a target for heart failure and platelet aggregation” (Bioorg Med Chem Lett, 2012).)
